According to ChEMBL document CHEMBL4342431, “Synthesis and antileishmanial evaluation of thiazole orange analogs” (Bioorg Med Chem Lett, 2020):
Activity calls are given as the source filed them. The rule behind the calls is not given here.

Experiments:
Leishmania donovani [1] = assay: Antileishmanial activity against Leishmania donovani Ld1s intracellular amasitgote infected in J774 cells incubated for 72 hrs by non-radioactive cell proliferation assay; format: functional, organism-based; details: J774, 72 h
[2] = Selectivity index, ratio of IC for mouse J774 cells to IC50 for Leishmania donovani Ld1s promastigotes; format: toxicity; details: J774 cells versus Leishmania donovani Ld1s promastigotes, read-out: Ratio IC50
J774 = assay: Cytotoxicity against mouse J774 cells assessed as reduction in cell viability incubated for 72 hrs by MTT assay; format: cell-based; details: J774, 72 h
[3] = Binding affinity to 5'-dCCAAAATTTTG CTCT CAAAATTTTGG-3' DNA (unknown origin) assessed as change in melting temperature at 2:1 ligand and DNA by specrophotometry
[4] = Binding affinity to 5'-dCCAAAAGTTTTG CTCT CAAAACTTTTGG-3' DNA (unknown origin) assessed as change in melting temperature at 2:1 ligand and DNA by specrophotometry
Leishmania donovani [5] = assay: Antileishmanial activity against Leishmania donovani LV82 amastigotes infected in mouse peritoneal microphage incubated for 72 hrs by DAPI staining based assay; format: functional, organism-based; details: LV82, 72 h
Leishmania donovani [6] = assay: Antileishmanial activity against Leishmania donovani LV82 intracellular amastigotes infected in murine peritoneal macrophage incubated for […] by beta-lactamase reporter gene based spectrophotometry; format: functional, organism-based
Leishmania donovani [7] = assay: Antileishmanial activity against Leishmania donovani LV82 promastigotes infected in BALB/c mouse assessed as reduction in liver parasitemia at 1.2 mg/kg, ip administered for 5 days by Geimsa staining based assay relative to control; format: functional; set-up: scale not given: the % may be the effect or the level left
[8] = Selectivity index, ratio of IC50 for mouse peritoneal macrophages to IC50 for Leishmania donovani LV82 intracellular amastigotes; format: toxicity, cell-based; details: read-out: Ratio IC50
[9] = Binding affinity to 5'-dCCAAAATTTTG CTCT CAAAATTTTGG-3' DNA (unknown origin) assessed as DNA intercalation incubated for 5 mins by circular dichroism method

ΔTm [3] [°C] | ΔTm [4] [°C] | IC50 (Leishmania donovani [5]) [nM] | IC50 (Leishmania donovani [6]) [nM] | Activity [9] | SMILES | IC50 (Leishmania donovani [1]) [nM] | selectivity ratio [2] | IC50 (J774) [nM] | Activity (Leishmania donovani [7]) [%] | selectivity ratio [8]
– | – | – | – | – | CN1/C(=C/c2cc[n+](C)c3cc(Cl)ccc23)Sc2ccccc21 | 34 | 5.3 | 180 | – | –
– | – | – | – | – | CN1/C(=C/c2cc[n+](C)c3ccccc23)Sc2ccccc21 [listing 1 of 2 here] | 14 | 14 | 190 | – | –
– | – | – | – | – | N=C(N)c1ccc(OCCCCCOc2ccc(C(=N)N)cc2)cc1 [PENTAMIDINE] | 3100 | – | – | – | –
4 | 3 | – | – | – | Cc1cccc2c(/C=C3\Sc4ccccc4N3C)cc[n+](C)c12 | 30 | 4 | 120 | – | –
< 1 | < 1 | 1700 | – | – | CN1/C(=C/c2cccc[n+]2C)Sc2ccccc21 | 290 | 8.6 | 2500 | – | –
– | – | – | – | – | CN1/C(=C/c2cc[n+](C)c3c(-c4ccccc4)cccc23)Sc2ccccc21 | 24 | 8.3 | 200 | – | –
– | – | – | – | – | COc1ccc2c(/C=C3\Sc4ccccc4N3C)cc[n+](C)c2c1 | 35 | 4 | 140 | – | –
– | – | – | 21 | – | CN1/C(=C/c2cc[n+](C)c3ccccc23)Sc2ccccc21.Cc1ccc(S(=O)(=O)[O-])cc1 | – | – | – | 48 | 25
3 | 2 | – | – | – | CN1/C(=C/c2cc[n+](C)c3cccc(-c4ccccc4)c23)Sc2ccccc21 | 42 | 3.8 | 160 | – | –
– | – | – | – | – | COc1cccc2c(/C=C3\Sc4ccccc4N3C)cc[n+](C)c12 | 30 | 2 | 59 | – | –
4 | 4 | – | – | – | Cc1ccc2c(/C=C3\Sc4ccccc4N3C)cc[n+](C)c2c1 | 37 | 3.2 | 120 | – | –
3 | 4 | – | – | – | Cc1cccc2c1c(/C=C1\Sc3ccccc3N1C)cc[n+]2C | 24 | 5 | 120 | – | –
5 | 4 | – | – | Active | Cc1ccc2c(c1)c(/C=C1\Sc3ccccc3N1C)cc[n+]2C | 31 | 6.5 | 200 | – | –
– | – | – | – | – | CN1/C(=C/c2cc[n+](C)c3cccc(Cl)c23)Sc2ccccc21 | 16 | 8.1 | 130 | – | –
– | – | – | – | – | COc1ccc2c(c1)c(/C=C1\Sc3ccccc3N1C)cc[n+]2C | 28 | 7.1 | 200 | – | –
– | – | – | – | – | COc1cc([C@@H]2c3cc4c(cc3[C@H](O)[C@H]3COC(=O)[C@H]23)OCO4)cc(OC)c1OC [PODOFILOX] | – | – | 23 | – | –
– | – | – | – | – | CCC[n+]1ccc(/C=C2\Sc3ccccc3N2C)c2ccccc21 | 13 | 11 | 140 | – | –
1 | < 1 | 960 | – | – | CN1C=CC(=Cc2sc3ccccc3[n+]2C)C=C1 | 140 | 20 | 2800 | – | –
2 | 1 | – | – | – | CN1C=CS/C1=C\c1cc[n+](C)c2ccccc12 | 160 | 9.4 | 1500 | – | –
– | – | – | – | – | CN1/C(=C/c2cc[n+](C)c3ccc(Cl)cc23)Sc2ccccc21 | 31 | 10 | 310 | – | –
– | – | 72 | – | – | CC[n+]1ccc(/C=C2\Sc3ccccc3N2C)c2ccccc21 | 12 | 14 | 170 | – | –
– | – | – | – | – | CN1/C(=C/c2cc[n+](C)c3ccc(-c4ccccc4)cc23)Sc2ccccc21 | 37 | 4.9 | 180 | – | –
– | – | – | – | – | CN1/C(=C/c2cc[n+](C)c3cc(-c4ccccc4)ccc23)Sc2ccccc21 | 13 | 5.3 | 69 | – | –
4 | 4 | – | – | – | CN1/C(=C/c2cc[n+](C)c3ccccc23)Sc2ccccc21 [listing 2 of 2 here] | – | – | – | – | –
– | – | – | – | – | COc1cccc2c1c(/C=C1\Sc3ccccc3N1C)cc[n+]2C | 25 | 3.4 | 86 | – | –
– | – | – | – | – | CN1/C(=C/c2cc[n+](Cc3ccccc3)c3ccccc23)Sc2ccccc21 | 26 | 7 | 190 | – | –
